Measured values: US7851637B2, “Compounds and methods for inhibiting the interaction of BCL proteins with binding partners” (Infinity Pharmaceuticals, Inc., priority 2004, dated 2010)
Where two headings read alike, the source gives them in different places.

Tests used:
[1] = target: Bcl-xL (Homo sapiens, UniProt Q07817); assay: Bcl-xL binding affinity analysis (fluorescence polarization binding assay); parameters: scale not given here
Procedure, shortened: (§1)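 Compounds were tested in vitro for association with the purified target, with binding quantified from the change in fluorescence polarization.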

[2] = tested on: RL Human Follicular Lymphoma Cell Line; assay: Alamar blue cytotoxicity assay in RL cells; format: cell-based; conditions: Homo sapiens, 72 h incubation, read-out: Bcl RL Alamar Blue IC50
Protocol: When RL-cells are exposed to isoxazolidine compounds of the present invention, the inhibitors show a dose-dependent cell-killing in the Alamar blue cytoxicity assay with IC50 values of from about 100 μM to about 1 μM (See Examples). When Panc1 cells are exposed to the isoxazolidine compounds of the present invention in combination with camptothecin, the inhibitors show a synergistic dose-dependent cell killing in the propidium iodide exclusion cell survival assay with IC50 values of from about 100 μM to about 1 μM (See Examples).
• 1) Using 96 well plates, compounds were serially diluted in DMSO from 9 mM to 4 uM • 2) Assay plates were prepared by diluting samples 310 fold into 150 ul of medium containing 30,000 cells/well resulting in a final DMSO concentration of 0.3% and a concentration range from 29 uM to 0.013 uM for each compound. • 3) Plates were incubated at 37 C and 5% CO2 for 72 h • 4) After 72 h, Alamar blue reagent was added to each well and plates read according to manufacturer's instructions
In vitro cytotoxicity data for RL cells is presented below for various compounds of the invention.

[3] = target: Bcl-2 (Homo sapiens, UniProt P10415); assay: Bcl-2 binding affinity analysis (fluorescence polarization binding assay)
Chain of Bcl-2 (P10415 whole entry): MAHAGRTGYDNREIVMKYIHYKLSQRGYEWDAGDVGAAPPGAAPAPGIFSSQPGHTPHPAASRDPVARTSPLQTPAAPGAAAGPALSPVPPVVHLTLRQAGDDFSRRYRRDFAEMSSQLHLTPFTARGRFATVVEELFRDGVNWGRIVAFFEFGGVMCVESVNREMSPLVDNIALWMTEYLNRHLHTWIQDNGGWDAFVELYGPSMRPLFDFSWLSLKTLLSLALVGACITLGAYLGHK
Procedure, shortened: as §1

[4] = tested on: Human Pancreatic Cancer Cell Line Panc1; assay: Cell death assay (propidium iodide/Hoechst) in Panc1 cells with or without camptothecin; format: cell-based; conditions: 72 hours, % cell death by propidium iodide/Hoechst
Procedure, shortened: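 Panc1 cells, 10,000/well, exposed 72 h at 37 C to compound (29 uM to 0.13 uM, 0.3% DMSO) with or without 3 uM camptothecin. Propidium iodide and Hoechst staining imaged by fluorescence microscopy; % cell death = PI-stained/Hoechst-stained cells × 100.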

[5] = Homo sapiens, PANC-1, without camptothecin, read-out: Panc1 − Cpt IC50
[6] = with 3 uM Camptothecin, read-out: Panc1 + Cpt IC50

Chain of Bcl-xL (Q07817 whole entry): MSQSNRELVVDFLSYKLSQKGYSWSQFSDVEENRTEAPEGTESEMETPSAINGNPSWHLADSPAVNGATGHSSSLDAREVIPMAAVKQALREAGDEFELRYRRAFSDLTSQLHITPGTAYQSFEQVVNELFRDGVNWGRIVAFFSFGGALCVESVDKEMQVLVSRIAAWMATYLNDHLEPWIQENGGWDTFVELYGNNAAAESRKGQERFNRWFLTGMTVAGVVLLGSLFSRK

Compound | Bcl-XL binding affinity Ki [1] | IC50 [2] [nM] | Ki [3] [nM] | IC50 [4, 5] [nM] | IC50 [4, 6] [nM]
CCN1CCC[C@H]1CN(Cc1ccccc1)Cc1cccc(CN2O[C@@H](CO)C([C@H](C)O)[C@H]2C(=O)N[C@H]2C[C@H]3C[C@@H]([C@@H]2C)C3(C)C)c1 (stereo partly drawn) [Compound 424] | ♯ | < 2000 | < 800 | > 2500 | 1800 to 2500
COc1c(CN2O[C@@H](CO)[C@@H]([C@H](C)O)[C@H]2C(=O)N[C@H]2C[C@H]3C[C@@H]([C@@H]2C)C3(C)C)cccc1-c1cccc(C(=O)N[C@H](CN(C)C)C2CCCCC2)c1 [Compound 480] | ♯ | 2000 to 5000 | < 800 | > 2500 | 1300 to 1800
CC(O)C1C(CO)ON(Cc2cccc(CN(CCN(C)C)Cc3cccc(Br)c3)c2)C1C(=O)NC1CC2CC(C1C)C2(C)C (stereo not drawn) [Compound 366] | ♯ | 2000 to 5000 | < 800 | 1800 to 2500 | 1800 to 2500
CC(O)C1C(CO)ON(Cc2cccc(CN(CCN3CCCC3)CC3CCCCC3)c2)C1C(=O)NC1CC2CC(C1C)C2(C)C (stereo not drawn) [Compound 425] | ♯ | < 2000 | < 800 | > 2500 | > 2500
CC(O)C1C(CO)ON(Cc2cccc(CN(CCN(C)C)Cc3ccccn3)c2)C1C(=O)NC1CC2CC(C1C)C2(C)C (stereo not drawn) [Compound 413] | ♯ | > 5000 | < 800 | > 2500 | > 2500
C[C@@H]1[C@@H](NC(=O)[C@@H]2C([C@H](C)O)[C@H](CO)ON2Cc2cccc(CN(CCN(C)C)Cc3ccc(Br)cc3)c2)C[C@H]2C[C@@H]1C2(C)C (stereo partly drawn) [Compound 360] | ♯ | > 5000 | < 800 | > 2500 | > 2500
CC(O)C1C(CO)ON(Cc2cccc(CN(C)C(CC3CCCCC3)CN(C)C)c2)C1C(=O)NC1CC2CC(C1C)C2(C)C (stereo not drawn) [Compound 442] | ♯ | 2000 to 5000 | < 800 | > 2500 | > 2500
CC(O)C1C(CO)ON(Cc2cccc(CN(CCN(C)C)Cc3ccoc3)c2)C1C(=O)NC1CC2CC(C1C)C2(C)C (stereo not drawn) [Compound 392] | ♯ | > 5000 | < 800 | > 2500 | > 2500
CC(O)C1C(CO)ON(Cc2cccc(CN(CCN(C)C)Cc3nccs3)c2)C1C(=O)NC1CC2CC(C1C)C2(C)C (stereo not drawn) [Compound 395] | ♯ | > 5000 | < 800 | > 2500 | > 2500
CC(C)C(CN(C)C)N(Cc1ccccc1)Cc1cccc(CN2OC(CO)C(C(C)O)C2C(=O)NC2CC3CC(C2C)C3(C)C)c1 (stereo not drawn) [Compound 415] | ♯ | 2000 to 5000 | < 800 | > 2500 | > 2500
CCN(CC)CCN(Cc1ccccc1)Cc1cccc(CN2OC(CO)C(C(C)O)C2C(=O)NC2CC3CC(C2C)C3(C)C)c1 (stereo not drawn) [Compound 428] | ♯ | > 5000 | < 800 | > 2500 | > 2500
COc1ccccc1CN(Cc1cccc(CN2OC(CO)C(C(C)O)C2C(=O)NC2CC3CC(C2C)C3(C)C)c1)C(CC(C)C)CN(C)C (stereo not drawn) [Compound 301] | ♯ | < 2000 | < 800 | > 2500 | > 2500
CC(C)CC(CN(C)C)N(Cc1cccc(CN2OC(CO)C(C(C)O)C2C(=O)NC2CC3CC(C2C)C3(C)C)c1)Cc1ccccc1C(F)(F)F (stereo not drawn) [Compound 321] | ♯ | < 2000 | < 800 | < 1300 | < 1300
CC(C)CC(CN(C)C)N(Cc1cccc(CN2OC(CO)C(C(C)O)C2C(=O)NC2CC3CC(C2C)C3(C)C)c1)Cc1ccccc1[N+](=O)[O-] (stereo not drawn) [Compound 316] | ♯ | > 5000 | < 800 | > 2500 | > 2500
CC(O)C1C(CO)ON(Cc2cccc(CN(CCN(C)C)CC3=CCCCC3)c2)C1C(=O)NC1CC2CC(C1C)C2(C)C (stereo not drawn) [Compound 354] | ♯ | < 2000 | < 800 | 1800 to 2500 | 1300 to 1800
CC(O)C1C(CO)ON(Cc2cccc(CN(CC(=O)N(C)C)Cc3ccccc3)c2)C1C(=O)NC1CC2CC(C1C)C2(C)C (stereo not drawn) [Compound 471] | ♯ | > 5000 | < 800 | > 2500 | > 2500
CC(C)CC(CN(C)C)N(Cc1cccc(CN2OC(CO)C(C(C)O)C2C(=O)NC2CC3CC(C2C)C3(C)C)c1)Cc1ccccc1C#N (stereo not drawn) [Compound 314] | ♯ | < 2000 | < 800 | > 2500 | > 2500
CC(C)CC(CN(C)C)N(Cc1cccc(CN2OC(CO)C(C(C)O)C2C(=O)NC2CC3CC(C2C)C3(C)C)c1)Cc1ccccc1F (stereo not drawn) [Compound 312] | ♯ | < 2000 | < 800 | > 2500 | > 2500
CC(C)CC(CN(C)C)NC(=O)c1cccc(CN2OC(CO)C(C(C)O)C2C(=O)NC2CC3CC(C2C)C3(C)C)c1 (stereo not drawn) [Compound 505] | ♯ | > 5000 | < 800 | > 2500 | > 2500
CC(O)C1C(CO)ON(Cc2cccc(CN(CCN(C)C)Cc3c(F)cccc3C(F)(F)F)c2)C1C(=O)NC1CC2CC(C1C)C2(C)C (stereo not drawn) [Compound 412] | ♯ | < 2000 | < 800 | > 2500 | 1300 to 1800
CC(C)CC(CN(C)C)N(Cc1cccc(CN2OC(CO)C(C(C)O)C2C(=O)NC2CC3CC(C2C)C3(C)C)c1)Cc1ccccc1Br (stereo not drawn) [Compound 309] | ♯ | < 2000 | < 800 | > 2500 | 1300 to 1800
CC(O)C1C(CO)ON(Cc2cccc(CN(CCN(C)C)Cc3ccccc3Br)c2)C1C(=O)NC1CC2CC(C1C)C2(C)C (stereo not drawn) [Compound 348] | ♯ | > 5000 | < 800 | > 2500 | > 2500
Cc1cccc(C)c1CN(Cc1cccc(CN2OC(CO)C(C(C)O)C2C(=O)NC2CC3CC(C2C)C3(C)C)c1)C(CC(C)C)CN(C)C (stereo not drawn) [Compound 325] | ♯ | < 2000 | < 800 | < 1300 | < 1300
CC(O)C1C(CO)ON(Cc2cccc(CN(CCN(C)C)CC3CCOC3)c2)C1C(=O)NC1CC2CC(C1C)C2(C)C (stereo not drawn) [Compound 391] | ♯ | > 5000 | < 800 | > 2500 | > 2500
CC(O)C1C(CO)ON(Cc2cccc(CN3CCN(C)CC3c3ccccc3)c2)C1C(=O)NC1CC2CC(C1C)C2(C)C (stereo not drawn) [Compound 473] | ♯ | > 5000 | < 800 |  | 
CC(C)CN(CCN(C)C)Cc1cccc(CN2OC(CO)C(C(C)O)C2C(=O)NC2CC3CC(C2C)C3(C)C)c1 (stereo not drawn) [Compound 379] | ♯ | > 5000 | < 800 |  | 
